According to patent publication US4563472A, “Iodoallyl and iodopropargyl substituted tetrazoles and anti-microbial compositions thereof” (Meiji Seika Kaisha, Ltd., priority 1982, dated 1986):
In brackets after ≈: the same amount, converted by molar mass. Read-outs that look alike come from different tables or passages of the source.

Tests used:
Assay type in all cases: cell-based
[1] = tested on: Staphylococcus aureus 209P JC-1; assay: Antibacterial Activity (in medicinal field), MIC; settings: Staphylococcus aureus 209P JC-1; read-out: Minimal Inhibitory Conc. (MIC)
[2] = tested on: Staphylococcus epidermidis ATCC 14990; assay: Antibacterial Activity (in medicinal field), MIC; settings: ATCC14990; Staphylococcus epidermidis ATCC 14990; read-out: Minimal Inhibitory Conc. (MIC)
[3] = tested on: Escherichia coli NIHJ JC-2; assay: Antibacterial Activity (in medicinal field), MIC; settings: NIHJJC2, read-out: Minimal Inhibitory Conc. (MIC)
[4] = tested on: Shigella sonnei EW 33 Type I; assay: Antibacterial Activity (in medicinal field), MIC; settings: Shigella sonnei, EW33TYPEI, read-out: Minimal Inhibitory Conc. (MIC)
[5] = tested on: Klebsiella pneumoniae PCI-602; assay: Antibacterial Activity (in medicinal field), MIC; settings: PCI602, read-out: Minimal Inhibitory Conc. (MIC)
Proteus vulgaris OX-19 = assay: Antibacterial Activity (in medicinal field), MIC; settings: OX19, read-out: Minimal Inhibitory Conc. (MIC)
[6] = tested on: Serratia marcescens MB-3848; assay: Antibacterial Activity (in medicinal field), MIC; settings: MB3848, read-out: Minimal Inhibitory Conc. (MIC)
[7] = tested on: Pseudomonas cepacia M-0527; assay: Antibacterial Activity (in medicinal field), MIC; settings: Burkholderia cepacia, M0527, read-out: Minimal Inhibitory Conc. (MIC)
Candida alubicans GA-24 = assay: Antifungal Activity (in Medicinal Field), MIC; settings: GA24; Candida alubicans GA-24; read-out: Minimal Inhibitory Conc. (MIC)
[8] = tested on: Cryptococcus neoformans Cr-1; assay: Antifungal Activity (in Medicinal Field), MIC; settings: CR1, read-out: Minimal Inhibitory Conc. (MIC)
[9] = tested on: Trichophyton metagrophytes 530324; assay: Antifungal Activity (in Medicinal Field), MIC; settings: Trichophyton metagrophytes 530324; read-out: Minimal Inhibitory Conc. (MIC)
[10] = tested on: Trichophyton interdigitale; assay: Antifungal Activity (in Medicinal Field), MIC; settings: read-out: Minimal Inhibitory Conc. (MIC)
[11] = tested on: Aspergillus fumigatus Saito; assay: Antifungal Activity (in Medicinal Field), MIC; settings: read-out: Minimal Inhibitory Conc. (MIC)
[12] = tested on: Aspergillus flavus ATCC 6275; assay: Antifungal Activity (in Industrial Field), MIC; settings: ATCC6275, read-out: Minimal Inhibitory Conc. (MIC)
[13] = tested on: Aspergillus terreus PQMD 82 j; assay: Antifungal Activity (in Industrial Field), MIC; settings: PQMD82J, read-out: Minimal Inhibitory Conc. (MIC)
[14] = tested on: Penicillium luteum ATCC 9644; assay: Antifungal Activity (in Industrial Field), MIC; settings: Ascospirella lutea, ATCC9644, read-out: Minimal Inhibitory Conc. (MIC)
Mucor spinescens IAM Mu3 = assay: Antifungal Activity (in Industrial Field), MIC; settings: IAMMU3, read-out: Minimal Inhibitory Conc. (MIC)
[15] = tested on: Cladosporium herbarum IAM F-517; assay: Antifungal Activity (in Industrial Field), MIC; settings: IAMF517, read-out: Minimal Inhibitory Conc. (MIC)
[16] = tested on: Pullularia pullulans IAM F-24; assay: Antifungal Activity (in Industrial Field), MIC
[17] = tested on: Trichoderma T-1 ATCC 9645; assay: Antifungal Activity (in Industrial Field), MIC; settings: ATCC9645, read-out: Minimal Inhibitory Conc. (MIC)
[18] = tested on: Chaetomium globosum ATCC 6205; assay: Antifungal Activity (in Industrial Field), MIC; settings: ATCC6205, read-out: Minimal Inhibitory Conc. (MIC)
[19] = tested on: Aspergillus fumigatus IAM 2621; assay: Antifungal Activity (in Industrial Field), MIC; settings: IAM2621, read-out: Minimal Inhibitory Conc. (MIC)
[20] = tested on: Xanthomonas campestris pv. citri; assay: Antibacterial and Antifungal Activities (in Agricultural Field), MIC; settings: read-out: Minimal Inhibitory Conc. (MIC)
[21] = tested on: Pseudomonas syringae pv. tabaci; assay: as above; settings: read-out: Minimal Inhibitory Conc. (MIC)
Erwinia carotovora = assay: as above; settings: Pectobacterium carotovorum, read-out: Minimal Inhibitory Conc. (MIC)
[22] = tested on: Corynebacterium michiganense; assay: as above; settings: Clavibacter michiganensis; Corynebacterium michiganense; read-out: Minimal Inhibitory Conc. (MIC)
Phricularia oryzae = assay: as above; settings: read-out: Minimal Inhibitory Conc. (MIC)
Diaporithe citri = assay: as above; settings: read-out: Minimal Inhibitory Conc. (MIC)
[23] = tested on: Colletotrichum lagenarium; assay: as above; settings: Colletotrichum orbiculare, read-out: Minimal Inhibitory Conc. (MIC)
Alternaria kikuchiana = assay: as above; settings: read-out: Minimal Inhibitory Conc. (MIC)
Glomerella cingulata = assay: as above; settings: Colletotrichum gloeosporioides, read-out: Minimal Inhibitory Conc. (MIC)
Botrytis cinerea = assay: as above; settings: read-out: Minimal Inhibitory Conc. (MIC)
[24] = tested on: Fusarium oxysporum f. lycopersici; assay: as above; settings: read-out: Minimal Inhibitory Conc. (MIC)
Gibberella fujikuroi = assay: as above; settings: Fusarium fujikuroi, read-out: Minimal Inhibitory Conc. (MIC)
Cochliobolus miyabeanus = assay: as above; settings: Bipolaris oryzae, read-out: Minimal Inhibitory Conc. (MIC)
Pellicularia filamentosa = assay: as above; settings: read-out: Minimal Inhibitory Conc. (MIC)
[25] = tested on: Rhizopus nigricans S.N. 32; assay: Antifungal Activity (in Industrial Field), MIC; settings: Rhizopus stolonifer, read-out: Minimal Inhibitory Conc. (MIC)
[26] = tested on: Xanthomonas campestris pv. oryzae; assay: microbe, parasite or virus in culture; settings: read-out: Minimal Inhibitory Conc. (MIC)

SMILES | MIC (Candida alubicans GA-24) | MIC [8] | MIC [9] | MIC [10] | MIC [11] | MIC [12] | MIC [13] | MIC [14] | MIC (Mucor spinescens IAM Mu3) | MIC [15] | MIC [17] | MIC [18] | MIC [19] | MIC [20] | MIC [21] | MIC (Erwinia carotovora) | MIC [22] | MIC (Phricularia oryzae) | MIC (Diaporithe citri) | MIC [23] | also measured
IC(I)=C(I)Cn1ccnc1 [1-(2',3',3'-triiodoallyl)imidazole] | 1.56 µg/mL (≈ 3.21 µM) | 6.25 µg/mL (≈ 12.9 µM) | 1.56 µg/mL (≈ 3.21 µM) | 3.12 µg/mL (≈ 6.42 µM) | 6.25 µg/mL (≈ 12.9 µM) | 3.13 µg/mL (≈ 6.44 µM) | 0.78 µg/mL (≈ 1.61 µM) | 0.78 µg/mL (≈ 1.61 µM) | 6.25 µg/mL (≈ 12.9 µM) | 0.39 µg/mL (≈ 0.803 µM) | 6.25 µg/mL (≈ 12.9 µM) | 1.56 µg/mL (≈ 3.21 µM) | 6.25 µg/mL (≈ 12.9 µM) | 25 µg/mL (≈ 51.5 µM) | 12.5 µg/mL (≈ 25.7 µM) | 12.5 µg/mL (≈ 25.7 µM) | 1.56 µg/mL (≈ 3.21 µM) | 3.13 µg/mL (≈ 6.44 µM) | 0.78 µg/mL (≈ 1.61 µM) | 1.56 µg/mL (≈ 3.21 µM) | MIC [1]: 12.5 µg/mL (≈ 25.7 µM); MIC [2]: 12.5 µg/mL (≈ 25.7 µM); MIC [3]: 12.5 µg/mL (≈ 25.7 µM); MIC [4]: 6.5 µg/mL (≈ 13.4 µM); MIC [5]: 12.5 µg/mL (≈ 25.7 µM); MIC (Proteus vulgaris OX-19): 12.5 µg/mL (≈ 25.7 µM); MIC [6]: 12.5 µg/mL (≈ 25.7 µM); MIC [7]: 6.25 µg/mL (≈ 12.9 µM); MIC ([16]; IAMF24, Pullularia pullulans IAM F-24, read-out: Minimal Inhibitory Conc. (MIC)): 3.13 µg/mL (≈ 6.44 µM); MIC (Alternaria kikuchiana): 1.56 µg/mL (≈ 3.21 µM); MIC (Glomerella cingulata): 1.56 µg/mL (≈ 3.21 µM); MIC (Botrytis cinerea): 1.56 µg/mL (≈ 3.21 µM); MIC [24]: 1.56 µg/mL (≈ 3.21 µM); MIC (Gibberella fujikuroi): 0.78 µg/mL (≈ 1.61 µM); MIC (Cochliobolus miyabeanus): 6.25 µg/mL (≈ 12.9 µM); MIC (Pellicularia filamentosa): 50 µg/mL (≈ 103 µM)
Cc1nnn(CC(I)=C(I)I)n1 [2-(2',3',3'-triiodoallyl)-5-methyltetrazole] | 0.78 µg/mL (≈ 1.55 µM) | 1.56 µg/mL (≈ 3.11 µM) | 0.19 µg/mL (≈ 0.379 µM) | 0.19 µg/mL (≈ 0.379 µM) | 0.19 µg/mL (≈ 0.379 µM) | 1.56 µg/mL (≈ 3.11 µM) | 0.39 µg/mL (≈ 0.777 µM) | 6.25 µg/mL (≈ 12.5 µM) | 1.56 µg/mL (≈ 3.11 µM) | 6.25 µg/mL (≈ 12.5 µM) | 6.25 µg/mL (≈ 12.5 µM) | 6.25 µg/mL (≈ 12.5 µM) | 1.56 µg/mL (≈ 3.11 µM) | 50 µg/mL (≈ 99.6 µM) | > 100 µg/mL | > 100 µg/mL | 25 µg/mL (≈ 49.8 µM) | 3.13 µg/mL (≈ 6.24 µM) | 0.78 µg/mL (≈ 1.55 µM) | 0.78 µg/mL (≈ 1.55 µM) | MIC ([16]; IAMF24, read-out: Minimal Inhibitory Conc. (MIC)): 3.13 µg/mL (≈ 6.24 µM); MIC [25]: 1.56 µg/mL (≈ 3.11 µM); MIC [26]: 6.25 µg/mL (≈ 12.5 µM); MIC (Alternaria kikuchiana): 1.56 µg/mL (≈ 3.11 µM); MIC (Glomerella cingulata): 0.39 µg/mL (≈ 0.777 µM); MIC (Botrytis cinerea): 0.39 µg/mL (≈ 0.777 µM); MIC [24]: 3.13 µg/mL (≈ 6.24 µM); MIC (Gibberella fujikuroi): 0.78 µg/mL (≈ 1.55 µM); MIC (Cochliobolus miyabeanus): 6.25 µg/mL (≈ 12.5 µM); MIC (Pellicularia filamentosa): > 100 µg/mL
